Literature values in US9334250B2, “Multifunctional radical quenchers for the treatment of mitochondrial dysfunction” (Arizona Board of Regents, A Body Corporate of the State of …, priority 2012, dated 2016).

Settings: James et al. (2005) J Biol. Chem. 280, 21295-21312

calculated octanol-water partition coefficient: > 1e+20
SMILES: COC1=C(OC)C(=O)C(C/C=C(\C)CC/C=C(\C)CC/C=C(\C)CC/C=C(\C)CC/C=C(\C)CC/C=C(\C)CC/C=C(\C)CC/C=C(\C)CC/C=C(\C)CCC=C(C)C)=C(C)C1=O [coenzyme Q10]
